# Target: T1, PD-1/PD-L1 (Homo sapiens, UniProt Q9NZQ7)
# T1 construct: tag1 or tag2 (identity not disclosed); purchased CisBio 64CUS000C-1
# Test: Homogeneous Time-Resolved Fluorescence (HTRF) binding test
# Conditions: CisBio kit #64CUS000C-1, read-out: IC50 values of compounds binding to PD-1/PD-L1
# Description: The binding ability of the compounds of the present disclosure to PD-1/PD-L1 was detected using Homogeneous Time-Resolved Fluorescence (HTRF) binding test.
# The purchased kit (CisBio, #64CUS000C-1) contained the reagents needed for experiments, such as PD-1, PD-L1, anti-tag1-Eu, Anti-tag2-XL665, Dilute Buffer and Detection Buffer.
# 1. The compound was prepared with 100% DMSO to 10 concentrations with a concentration gradient of 3 times.
# 2. A solution of the compound in DMSO was added into Dilute Buffer, mixed uniformly, and then transferred into 96-well plate.
# 3. PD-L1 was diluted with Dilute Buffer, and then added into the above 96-well plate.
# 4. PD-1 was diluted with Dilute Buffer, and then added into the above 96-well plate and incubated at room temperature for 30 minutes.
# 5. A part of anti-tag1-Eu and a part of Anti-tag2-XL665 were added into Detection Buffer, mixed uniformly and then transferred into the above 96-well plate.
# 6. The mixed solution in this 96-well plate was incubated at room temperature for 1 hour to 24 hours.
# 7. HTRF values were read with Envision.
# T1 sequence (Q9NZQ7 19-238 limits assumed): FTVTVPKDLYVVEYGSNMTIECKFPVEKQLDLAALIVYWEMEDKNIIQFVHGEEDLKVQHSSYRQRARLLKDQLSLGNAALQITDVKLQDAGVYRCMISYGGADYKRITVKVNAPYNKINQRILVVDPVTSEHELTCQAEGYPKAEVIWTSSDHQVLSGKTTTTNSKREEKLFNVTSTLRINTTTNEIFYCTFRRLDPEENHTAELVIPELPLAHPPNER
row,SMILES,IC50
1,"Cc1c(/C=C/c2cc(CN[C@@](C)(CO)C(=O)O)ccc2C(F)(F)F)cccc1-c1cccc(/C=C/c2cc(CNCCO)ccc2C(F)(F)F)c1Cl [Compound 6, (2S)-3-hydroxy-2-[({3-[(E)-2-(3-{3-[(E)-2-(5-{[(2-hydroxyethyl)amino]methyl}-2-(trifluoromethyl)phenyl)ethenyl]-2-chlorophenyl}-2-methylphenyl)ethenyl]-4-(trifluoromethyl)phenyl}methyl)amino]-2-methylpropanoic Acid]",2.8 nM
2,"COCCNCc1ccc(C(F)(F)F)c(/C=C/c2cccc(-c3cccc(/C=C/c4cc(CN[C@@](C)(CO)C(=O)O)ccc4C(F)(F)F)c3C)c2Cl)c1 [Compound 5, (2S)-3-hydroxy-2-[({3-[(E)-2-(3-{3-[(E)-2-(5-{[(2-methoxyethyl)amino]methyl}-2-(trifluoromethyl)phenyl)ethenyl]-2-chlorophenyl}-2-methylphenyl)ethenyl]-4-(trifluoromethyl)phenyl}methyl)amino]-2-methylpropanoic Acid]",2.3 nM
3,"Cc1c(/C=C/c2cc(CNCCO)ccc2C(F)(F)F)cccc1-c1cccc(/C=C/c2cc(CNCCO)ccc2C(F)(F)F)c1C [Compound 1, 2-[({3-[(E)-2-(3-{3-[(E)-2-(5-{[(2-hydroxyethyl)amino]methyl}-2-(trifluoromethyl)phenyl)ethenyl]-2-methylphenyl}-2-methylphenyl)ethenyl]-4-(trifluoromethyl)phenyl}methyl)amino]-1-ethanol]",6.1 nM
4,"COCCNCc1ccc(C(F)(F)F)c(/C=C/c2cccc(-c3cccc(/C=C/c4cc(CNCCO)ccc4C(F)(F)F)c3C)c2Cl)c1 [Compound 4, 2-[({3-[(E)-2-(3-{3-[(E)-2-(5-{[(2-methoxyethyl)amino]methyl}-2-(trifluoromethyl)phenyl)ethenyl]-2-chlorophenyl}-2-methylphenyl)ethenyl]-4-(trifluoromethyl)phenyl}methyl)amino]-1-ethanol]",4.3 nM
5,"Cc1c(/C=C/c2cc(CNCCO)ccc2C(F)(F)F)cccc1-c1cccc(/C=C/c2cc(CN[C@@](C)(CO)C(=O)O)ccc2C(F)(F)F)c1C [Compound 2, (2S)-3-hydroxy-2-[({3-[(E)-2-(3-{3-[(E)-2-(5-{[(2-hydroxyethyl)amino]methyl}-2-(trifluoromethyl)phenyl)ethenyl]-2-methylphenyl}-2-methylphenyl)ethenyl]-4-(trifluoromethyl)phenyl}methyl)amino]-2-methylpropanoic Acid]",4.4 nM
6,"Cc1c(/C=C/c2cc(CN[C@@](C)(CO)C(=O)O)ccc2C(F)(F)F)cccc1-c1cccc(/C=C/c2cc(CN[C@@](C)(CO)C(=O)O)ccc2C(F)(F)F)c1C [Compound 3, (2S)-2-[({3-[(E)-2-(3-{3-[(E)-2-[5-({[(1S)-1-carboxyl-2-hydroxy-1-methylethyl]amino}methyl)-2-(trifluoromethyl)phenyl]ethenyl]-2-methylphenyl}-2-methylphenyl)ethenyl]-4-(trifluoromethyl)phenyl}methyl)amino]-3-hydroxy-2-methylpropanoic Acid]",3.2 nM

# Now from value to compound:
row,IC50,SMILES
1,2.6 nM,"Cc1c(/C=C/c2cc(CNCCO)ccc2C(F)(F)F)cccc1-c1cccc(/C=C/c2cc(CNCCO)ccc2C(F)(F)F)c1Cl [Compound 7, 2-[({3-[(E)-2-(3-{3-[(E)-2-(5-{[(2-hydroxyethyl)amino]methyl}-2-(trifluoromethyl)phenyl)ethenyl]-2-chlorophenyl}-2-methylphenyl)ethenyl]-4-(trifluoromethyl)phenyl}methyl)amino]-1-ethanol]"
2,14 nM,"Cc1c(/C=C/c2cc(CNCCO)ccc2C(F)(F)F)cccc1-c1cccc(-c2cc(CNCCO)ccc2F)c1C [Compound 10, 2-({[(3-(E)-2-{3-[3-(5-{[(2-hydroxyethyl)amino]methyl}-2-fluoro-phenyl)-2-methylphenyl]-2-methylphenyl}ethenyl)-4-(trifluoromethyl)phenyl]methyl}amino)-1-ethanol]"
3,4.7 nM,"Cc1c(/C=C/c2cc(CNCCO)ccc2C(F)(F)F)cccc1-c1cccc(/C=C/c2cc(CNCCO)ccc2C(F)(F)F)c1CF [Compound 12, 2-[({3-[(E)-2-(3-{3-[(E)-2-(5-{[(2-hydroxyethyl)amino]methyl}-2-(trifluoromethyl)phenyl)ethenyl]-2-(fluoromethyl)phenyl}-2-methylphenyl)ethenyl]-4-(trifluoromethyl)phenyl}methyl)amino]-1-ethanol]"
4,510 nM,"COCCOc1ccc(F)c(/C=C/c2cccc(-c3cccc(/C=C/c4cc(CN[C@@](C)(CO)C(=O)O)ccc4C(F)(F)F)c3C)c2C)c1 [Compound 8, (2S)-3-hydroxy-2-[({3-[(E)-2-[3-(3-(E)-{2-[2-fluoro-5-(2-methoxyethoxy)phenyl]ethenyl}-2-methylphenyl)-2-methylphenyl]ethenyl]-4-(trifluoromethyl)phenyl}methyl)amino]-2-methylpropanoic Acid]"
5,8.7 nM,"Cc1c(/C=C/c2cc(CN[C@@](C)(CO)C(=O)O)ccc2C(F)(F)F)cccc1-c1cccc(-c2cc(CN[C@@](C)(CO)C(=O)O)ccc2F)c1C [Compound 11, (2S)-2-[({3-[(E)-2-(3-{3-[5-({[(1S)-1-carboxyl-2-hydroxy-1-methylethyl]amino}methyl)-2-fluorophenyl]-2-methylphenyl}-2-methylphenyl)ethenyl]-4-(trifluoromethyl)phenyl}methyl)amino]-3-hydroxy-2-methylpropanoic acid]"
6,7.5 nM,"Cc1c(/C=C/c2cc(CNCCO)ccc2C(F)(F)F)cccc1-c1cccc(-c2cccc(CNCCO)c2)c1C [Compound 9, 2-({[(3-(E)-2-{3-[3-(3-{[(2-hydroxyethyl)amino]methyl}phenyl)-2-methylphenyl]-2-methylphenyl}ethenyl)-4-(trifluoromethyl)phenyl]methyl}amino)-1-ethanol]"

# Source: patent publication US20210387941A1, “Diphenyl-like Compound, Intermediate Thereof, Preparation Method Therefor, Pharmaceutical Composition Thereof And Uses Thereof” (SHANGHAI MAXINOVEL PHARMACEUTICALS CO., LTD., priority 2018, published 2021)
